Test results published in patent publication US7767659B2, “Synthesis of naturally occurring ecteinascidins and related compounds” (Pharma Mar, S.A., priority 2002, dated 2010).

Legend:
HT-29 = experiment: cells; settings: Homo sapiens, HT-29, 48 h; for GI50: read-out: GI50 HT29; for CC50: read-out: LC50 HT29; for IC (TGI): read-out: TGI HT29
Outline: (§1)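 Colorimetric SRB read (490 nm) on triplicate wells after 48 h at 37 °C, 5% CO2. Dose range 10 to 10^−8 μg/ml; 5×10^3 cells/well pre-attached 18 h.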

A-549 = experiment: cells; settings: Homo sapiens, A549, 48 h; for GI50: read-out: GI50 A549; for CC50: read-out: LC50 A549; for IC (TGI): read-out: TGI A549
Outline: as §1

LoVo = experiment: cells; settings: Homo sapiens, LoVo, 48 h; for GI50: read-out: GI50 LOVO; for CC50: read-out: LC50 LOVO; for IC (TGI): read-out: TGI LOVO
Outline: as §1

LNCaP = experiment: Inhibition of cells growth by colorimetric assay (SRB); settings: Homo sapiens, LNCaP, 48 h; for GI50: read-out: GI50 LNCAP; for CC50: read-out: LC50 LNCAP; for IC (TGI): read-out: TGI LNCAP
Outline: as §1

SK-BR-3 = experiment: as above; settings: Homo sapiens, SK-BR-3, 48 h; for GI50: read-out: GI50 SK-BR3; for CC50: read-out: LC50 SK-BR3; for IC (TGI): read-out: TGI SK-BR3
Outline: as §1

IGROV-ET = experiment: as above; settings: Homo sapiens, 48 h; for GI50: read-out: GI50 IGROV-ET; for CC50: read-out: LC50 IGROV-ET; for IC (TGI): read-out: TGI IGROV-ET
Outline: as §1

K-562 = experiment: as above; settings: Homo sapiens, K562, 48 h; for GI50: read-out: GI50 K562; for CC50: read-out: LC50 K562; for IC (TGI): read-out: TGI K562
Outline: as §1

SK-MEL-28 = experiment: as above; settings: Homo sapiens, SK-MEL-28, 48 h; for GI50: read-out: GI50 MEL-28; for CC50: read-out: LC50 MEL-28; for IC (TGI): read-out: TGI MEL-28
Outline: as §1

IGROV-1 = experiment: as above; settings: Homo sapiens, IGROV-1, 48 h; for GI50: read-out: GI50 IGROV; for CC50: read-out: LC50 IGROV; for IC (TGI): read-out: TGI IGROV
Outline: as §1

LoVo-Dox = experiment: as above; settings: Homo sapiens, 48 h; for GI50: read-out: GI50 LOVO-DOX; for CC50: read-out: LC50 LOVO-DOX; for IC (TGI): read-out: TGI LOVO-DOX
Outline: as §1

HeLa-APL = experiment: as above; settings: Homo sapiens, 48 h; for GI50: read-out: GI50 HELA-APL; for CC50: read-out: LC50 HELA-APL; for IC (TGI): read-out: TGI HELA-APL
Outline: as §1

PANC-1 = experiment: as above; settings: Homo sapiens, PANC-1, 48 h; for GI50: read-out: GI50 PANC-1; for CC50: read-out: LC50 PANC-1; for IC (TGI): read-out: TGI PANC-1
Outline: as §1

DU-145 = experiment: as above; settings: Homo sapiens, DU-145, 48 h; for GI50: read-out: GI50 DU145; for CC50: read-out: LC50 DU145; for IC (TGI): read-out: TGI DU145
Outline: as §1

HeLa = experiment: as above; settings: Homo sapiens, HeLa, 48 h; for GI50: read-out: GI50 HELA; for CC50: read-out: LC50 HELA; for IC (TGI): read-out: TGI HELA
Outline: as §1

## COc1c(C)cc2c(c1O)[C@@H]1C3[C@@H]4SC[C@]5(NCCc6c5[nH]c5ccccc65)C(=O)OC[C@@H](c5c6c(c(C)c(OC(C)=O)c54)OCO6)N3[C@@H](C#N)[C@H](C2)N1C (stereo partly drawn) [compound 22]
HT-29
  GI50: 0.0297 µM
  CC50: 13.1 µM
  IC (TGI): 0.0825 µM
A-549
  GI50: 0.0267 µM
  CC50: 0.131 µM
  IC (TGI): 0.059 µM
LoVo
  GI50: 0.0203 µM
  CC50: 0.0965 µM
  IC (TGI): 0.0411 µM
LNCaP
  GI50: 0.00615 µM
  CC50: 0.055 µM
  IC (TGI): 0.0211 µM
SK-BR-3
  GI50: 0.00577 µM
  CC50: 0.12 µM
  IC (TGI): 0.0223 µM
IGROV-ET
  GI50: 0.0522 µM
  CC50: 0.131 µM
  IC (TGI): 0.104 µM
K-562
  GI50: 0.00592 µM
  CC50: 0.84 µM
  IC (TGI): 0.0424 µM
SK-MEL-28
  GI50: 0.0302 µM
  CC50: 0.102 µM
  IC (TGI): 0.0555 µM
IGROV-1
  GI50: 0.0191 µM
  CC50: 0.104 µM
  IC (TGI): 0.0446 µM
LoVo-Dox
  GI50: 0.0874 µM
  CC50: 13.1 µM
  IC (TGI): 0.524 µM
HeLa-APL
  GI50: 0.0211 µM
  CC50: 0.0935 µM
  IC (TGI): 0.0444 µM
PANC-1
  GI50: 0.0296 µM
  CC50: 0.854 µM
  IC (TGI): 0.0738 µM
DU-145
  GI50: 0.0296 µM
  CC50: 1.31 µM
  IC (TGI): 0.0868 µM
HeLa
  GI50: 0.0332 µM
  CC50: 0.158 µM
  IC (TGI): 0.0566 µM

## C=CCN1[C@@H]2c3c(cc(C)c(OC)c3O)C[C@H]1[C@H](C#N)N1C2[C@@H]2SC[C@H](NC(=O)c3cc4ccccc4oc3=O)C(=O)OC[C@H]1c1c3c(c(C)c(OC(C)=O)c12)OCO3 (stereo partly drawn) [compound 28]
HT-29
  GI50: 0.0765 µM
  IC (TGI): 2.05 µM
A-549
  GI50: 0.0525 µM
  CC50: 2.27 µM
  IC (TGI): 0.163 µM
LoVo
  GI50: 0.0663 µM
  CC50: 0.687 µM
  IC (TGI): 0.212 µM
LNCaP
  GI50: 0.0229 µM
  CC50: 0.111 µM
  IC (TGI): 0.0504 µM
SK-BR-3
  GI50: 0.0473 µM
  CC50: 1.22 µM
  IC (TGI): 0.164 µM
IGROV-ET
  GI50: 0.138 µM
  CC50: 0.898 µM
  IC (TGI): 0.352 µM
K-562
  GI50: 0.0283 µM
  CC50: 2.69 µM
  IC (TGI): 0.135 µM
SK-MEL-28
  GI50: 0.0568 µM
  CC50: 0.692 µM
  IC (TGI): 0.135 µM
IGROV-1
  GI50: 0.049 µM
  CC50: 1.57 µM
  IC (TGI): 0.155 µM
LoVo-Dox
  GI50: 0.362 µM
  IC (TGI): 1.22 µM
HeLa-APL
  GI50: 0.0559 µM
  CC50: 0.682 µM
  IC (TGI): 0.13 µM
PANC-1
  GI50: 0.0592 µM
  IC (TGI): 0.197 µM
DU-145
  GI50: 0.0358 µM
  IC (TGI): 1.27 µM
HeLa
  GI50: 0.0386 µM
  CC50: 0.289 µM
  IC (TGI): 0.0755 µM

## C=CCN1[C@@H]2c3c(cc(C)c(OC)c3O)C[C@H]1[C@H](C#N)N1C2[C@@H]2SCC(NC(=O)CCCCCCCCCCCCCCC)C(=O)OC[C@H]1c1c3c(c(C)c(OC(C)=O)c12)OCO3 (stereo partly drawn) [compound 26]
HT-29
  GI50: 11.6 µM
  CC50: 11.6 µM
  IC (TGI): 11.6 µM
A-549
  GI50: 11.6 µM
  CC50: 11.6 µM
  IC (TGI): 11.6 µM
LoVo
  GI50: 11.6 µM
  CC50: 11.6 µM
  IC (TGI): 11.6 µM
LNCaP
  GI50: 3.82 µM
  CC50: 11.6 µM
  IC (TGI): 11.6 µM
SK-BR-3
  GI50: 4.23 µM
  CC50: 11.6 µM
  IC (TGI): 9.2 µM
IGROV-ET
  GI50: 11.6 µM
  CC50: 11.6 µM
  IC (TGI): 11.6 µM
K-562
  GI50: 2.3 µM
  CC50: 10.6 µM
  IC (TGI): 4.94 µM
SK-MEL-28
  GI50: 11.6 µM
  CC50: 11.6 µM
  IC (TGI): 11.6 µM
IGROV-1
  GI50: 6.84 µM
  CC50: 11.6 µM
  IC (TGI): 11.6 µM
LoVo-Dox
  GI50: 11.6 µM
  CC50: 11.6 µM
  IC (TGI): 11.6 µM
HeLa-APL
  CC50: 11.6 µM
PANC-1
  GI50: 11.6 µM
  CC50: 11.6 µM
  IC (TGI): 11.6 µM
DU-145
  GI50: 11.6 µM
  CC50: 11.6 µM
  IC (TGI): 11.6 µM
HeLa
  GI50: 11.6 µM
  CC50: 11.6 µM
  IC (TGI): 11.6 µM

## COc1c(C)cc2c(c1O)[C@H]1N[C@@H](C2)[C@H](C#N)N2C1[C@@H]1SCC(NC(C)=O)C(=O)OC[C@H]2c2c3c(c(C)c(OC(C)=O)c21)OCO3 (stereo partly drawn) [compound 30]
HT-29
  GI50: 0.00203 µM
  CC50: 15.4 µM
  IC (TGI): 0.0135 µM
A-549
  GI50: 0.00347 µM
  CC50: 0.089 µM
  IC (TGI): 0.0105 µM
LoVo
  GI50: 0.002 µM
  CC50: 15.4 µM
  IC (TGI): 0.00807 µM
LNCaP
  GI50: 0.0968 µM
  CC50: 0.147 µM
  IC (TGI): 0.12 µM
SK-BR-3
  GI50: 0.000527 µM
  CC50: 0.267 µM
  IC (TGI): 0.00229 µM
IGROV-ET
  GI50: 0.0254 µM
  CC50: 15.4 µM
  IC (TGI): 0.0824 µM
K-562
  GI50: 0.000312 µM
  CC50: 9.51 µM
  IC (TGI): 0.00249 µM
SK-MEL-28
  GI50: 0.00109 µM
  CC50: 0.0107 µM
  IC (TGI): 0.00366 µM
IGROV-1
  GI50: 0.000695 µM
  CC50: 0.231 µM
  IC (TGI): 0.00332 µM
LoVo-Dox
  GI50: 0.207 µM
  CC50: 15.4 µM
  IC (TGI): 2.07 µM
HeLa-APL
  GI50: 0.00186 µM
  CC50: 0.0195 µM
  IC (TGI): 0.0055 µM
PANC-1
  GI50: 0.00289 µM
  CC50: 15.4 µM
  IC (TGI): 0.0155 µM
DU-145
  GI50: 0.00263 µM
  CC50: 14.1 µM
  IC (TGI): 0.00744 µM
HeLa
  GI50: 0.00115 µM
  CC50: 0.0217 µM
  IC (TGI): 0.00453 µM
